# Assay results from US12612397B2, “Methods and compositions for modulating splicing” (Skyhawk Therapeutics, Inc., priority 2019, dated 2026).
# What was measured:
# [1] = tested on: MDR1-MDCK cell monolayers; conditions: dog, MDCK-MDR1, 120 min, 5 μM, pH 7.4
# Procedure: (§1) The permeability of compounds is assessed for BBB penetration potential by use of an MDCK-MDR1 assay (Catalog EA203) performed by Absorption Systems, Exton PA.
# (§2) MDR1-MDCK cell monolayers are grown to confluence on collagen-coated, microporous membranes in 12-well assay plates. The permeability assay buffer is Hanks' balanced salt solution containing 10 mM HEPES and 15 mM glucose at a pH of 7.4. The buffer in the receiver chamber also contained 1% bovine serum albumin. The dosing solution concentration is 5 μM of test article in the assay buffer. Cell monolayers are dosed on the apical side (A-to-B) or basolateral side (B-to-A) and incubated at 37° C. with 5% CO2 in a humidified incubator. Samples are taken from the donor and receiver chambers at 120 minutes. Each determination is performed in duplicate. The flux of lucifer yellow is also measured post-experimentally for each monolayer to ensure no damage is inflicted to the cell monolayers during the flux period. All samples are assayed by LC-MS/MS using electrospray ionization.
# (§3) Efflux ratio (ER) is defined as Papp (B-to-A)/Papp (A-to-B).
# (§4) • Column: Waters ACQUITY UPLC BEH Phenyl 30×2.1 mm, 1.7 μm • M.P. Buffer: 25 mM ammonium formate buffer, pH 3.5 • Aqueous Reservoir (A): 90% water, 10% buffer • Organic Reservoir (B): 90% acetonitrile, 10% buffer • Flow Rate: 0.7 mL/minute Gradient Program:
# (§5) • Total Run Time: 1.00 minute • Autosampler: 2 μL injection volume • Wash1: water/methanol/2-propanol:1/1/1; with 0.2% formic acid • Wash2: 0.1% formic acid in water
# MDR1 = test: in vitro; conditions: dog, MDCK-MDR1, pH 7.4
# Procedure: as §1, §2, §3, §4, §5
# SMN protein = SMN protein assay (MSD) in SMA patient fibroblasts (GM03813); type: cell-based, human; conditions: SMN protein by MSD, SMA patient fibroblasts GM03813, 48 hours
# Procedure: Compounds were tested on spinal muscular atrophy (SMA) patient fibroblasts (GM03813, Coriell) at doses ranging from 2.5 μM to 0.6 nM. 7000 cells/well were seeded in 96-well plates. Compounds were incubated for 48 hours and the cells were lysed with 100 μL of lysis buffer. 20 μL of lysate was used for SMN protein measurement by Mesoscale Discovery (MSD) assay developed by PharmOptima (Michigan). A standard curve prepared with SMN protein ranging from 1 μg/ml to 19.5 pg/ml was used in each MSD plate to calculate the absolute SMN protein amount in each sample.
# SMN FL = test: Quantitative splicing assay (SMN) in SMA patient fibroblasts (GM03813); type: cell-based; conditions: Homo sapiens, Fibroblast; SMA patient fibroblasts GM03813, 24 h, qPCR
# Procedure: Spinal muscular atrophy (SMA) patient fibroblasts (GM03813, Coriell) are plated in 96-well plates at 50,000 cells/well. Immediately after plating, cells are dosed with compounds for 24 h at concentrations ranging from 2.5 μM to 0.6 nM (0.1% DMSO). Treated cells are lysed and cDNA synthesized using the Fast Advanced Cells-to-Ct kit (Thermofisher A35378) according to the manufacturer's instructions. 2 μL of each cDNA are used in qPCR reactions. The qPCR reactions are prepared in 384-well plates in 10 μL volume, using TaqMan™ Fast Advanced Master Mix (ThermoFisher; 4444965) with primers and probes shown in the table below. Reactions are run in a Quant Studio 6 qPCR instrument with default settings.
SMILES,MDCK-MDR1: % Recov A-B [1],MDCK-MDR1: % Recov B-A [1],"Papp A→B at 120 min, 5 μM (MDR1)","Papp B→A at 120 min, 5 μM (MDR1)","efflux ratio at 120 min, 5 μM (MDR1)",EC50 (SMN protein),EC50 (SMN FL)
"CN(C)C(=O)c1cc2cc(O)c(-c3cnc(N(C)[C@H]4C[C@@H]5CC[C@@H](N5)[C@H]4F)nn3)cc2o1 (single isomer, unassigned) [Compound 9B]",88%,97%,2.4 ×10⁻⁶ cm/s,58.5 ×10⁻⁶ cm/s,24,,
"CN(c1ncc(-c2ccc(-c3cnn(C)c3)cc2O)nn1)[C@H]1C[C@@H]2CCC[C@@H](N2)[C@H]1F (single isomer, unassigned) [Compound 2B]",69%,83%,6.89 ×10⁻⁶ cm/s,32.9 ×10⁻⁶ cm/s,5,16 to 50 nM,
"CN(c1ncc(-c2ccc(-c3cn[nH]c3)cc2O)nn1)[C@H]1C[C@@H]2CC[C@@H](N2)[C@H]1F (single isomer, unassigned) [Compound 1B]",78%,90%,2.95 ×10⁻⁶ cm/s,33.2 ×10⁻⁶ cm/s,11,0.01 to 15 nM,101 to 500 nM
"CN(c1ncc(-c2ccc(-c3cn[nH]c3)cc2O)nn1)[C@@H]1C[C@H]2CC[C@H](N2)[C@@H]1F (single isomer, unassigned) [Compound 1A]",86%,89%,3.47 ×10⁻⁶ cm/s,51.6 ×10⁻⁶ cm/s,15,16 to 50 nM,0.01 to 15 nM
"CN(c1ncc(-c2ccc(-c3cnn(C)c3)cc2O)nn1)[C@@H]1C[C@H]2CCC[C@H](N2)[C@@H]1F (single isomer, unassigned) [Compound 2A]",81%,84%,4.48 ×10⁻⁶ cm/s,30.3 ×10⁻⁶ cm/s,7,51 to 100 nM,
"CN(c1ncc(-c2cc3ccncc3s2)nn1)[C@H]1C[C@@H]2CC[C@@H](N2)[C@H]1F (single isomer, unassigned) [Compound 8B]",79%,81%,12.9 ×10⁻⁶ cm/s,49.6 ×10⁻⁶ cm/s,4,501 to 10000 nM,
"CN(c1ncc(-c2cc3ccncc3s2)nn1)[C@@H]1C[C@H]2CC[C@H](N2)[C@@H]1F (single isomer, unassigned) [Compound 8A]",87%,93%,13.5 ×10⁻⁶ cm/s,37.3 ×10⁻⁶ cm/s,3,501 to 10000 nM,
"CN(C)C(=O)c1cc2cc(O)c(-c3cnc(N(C)[C@@H]4C[C@H]5CC[C@H](N5)[C@@H]4F)nn3)cc2o1 (single isomer, unassigned) [Compound 9A]",92%,100%,2.55 ×10⁻⁶ cm/s,61.2 ×10⁻⁶ cm/s,24,,
